Converted amounts (≈) assume the structure as drawn.
How the values were obtained:
[1] = tested on: Mycobacterium smegmatis ATCC 607; assay type: cell-based; details: Mycolicibacterium smegmatis, ATCC607; nutrient agar, 37° C., 18 hours
[2] = tested on: Klebsiella pneumoniae 22 #3038; assay type: cell-based; details: nutrient agar, 37° C., 18 hours
[3] = tested on: Escherichia coli K-12 LA 290 R56; assay: microbe, parasite or virus in culture; assay type: cell-based; details: K12LA290R56, 18 h
Proteus rettgeri GN311 = assay type: cell-based; details: Providencia rettgeri, nutrient agar, 37° C., 18 hours
Serratia 4 = assay type: cell-based; details: nutrient agar, 37° C., 18 hours
Bacillus anthracis = assay: microbe, parasite or virus in culture; assay type: cell-based; details: 18 h
Escherichia coli K-12 R5 = assay type: cell-based; details: K12R5, 18 h
[4] = tested on: Escherichia coli K-12 ML 1629; assay type: cell-based; details: K12ML1629, nutrient agar, 37° C., 18 hours
[5] = tested on: Pseudomonas aeruginosa B-13; assay type: cell-based; details: B13, 18 h
[6] = tested on: Shigella dysenteriae JS 11910; assay type: cell-based; details: JS11910, 18 h
Proteus vulgaris OX19 = assay type: cell-based; details: nutrient agar, 37° C., 18 hours
[7] = tested on: Shigella flexneri 4b JS11811; assay type: cell-based; details: 4BJS11811, nutrient agar, 37° C., 18 hours
[8] = tested on: Pseudomonas aeruginosa 99; assay type: cell-based; details: Pseudomonas aeruginosa, 99, 18 h
[9] = tested on: Pseudomonas aeruginosa PST1; assay type: cell-based; details: nutrient agar, 37° C., 18 hours
[10] = tested on: Pseudomonas aeruginosa H9; assay type: cell-based; details: H9, 18 h
[11] = tested on: Corynebacterium bovis 1810; assay: microbe, parasite or virus in culture; details: Corynebacterium bovis, 1810, 18 h
Experimental: (§1) Thus, the minimum inhibitory concentrations (mcg/ml) of the hexadeoxykanamycin and of the hexadeoxyamikacin according to this invention against various microorganisms were determined according to serial dilution method on a nutrient agar medium at 37° C., the estimation being made after 18 hours incubation. For comparison purpose, the minimum inhibitory concentrations of amikacin were also determined in the same manner as stated above.

Serratia marcescens = assay: microbe, parasite or virus in culture; details: 18 h
Experimental: as §1

[12] = tested on: Staphylococcus aureus Smith; assay type: cell-based; details: nutrient agar, 37° C., 18 hours
[13] = tested on: Micrococcus luteus PCI 1001; assay type: cell-based; details: PCI1001, nutrient agar, 37° C., 18 hours
[14] = tested on: Staphylococcus epidermidis 109; assay type: cell-based; details: nutrient agar, 37° C., 18 hours
Providencia Pv 16 = assay type: cell-based; details: PV16, nutrient agar, 37° C., 18 hours
[15] = tested on: Pseudomonas aeruginosa K-Ps102; assay type: cell-based; details: KPS102, 18 h
Escherichia coli NIHJ = assay type: cell-based; details: nutrient agar, 37° C., 18 hours
Escherichia coli K-12 = assay type: cell-based; details: K12, nutrient agar, 37° C., 18 hours
Escherichia coli W677 = assay type: cell-based; details: nutrient agar, 37° C., 18 hours
[16] = tested on: Pseudomonas aeruginosa GN315; assay type: cell-based; details: nutrient agar, 37° C., 18 hours
[17] = tested on: Escherichia coli K-12 J5R 11-2; assay type: cell-based; details: K12J5R112, nutrient agar, 37° C., 18 hours
[18] = tested on: Pseudomonas aeruginosa No. 12; assay type: cell-based; details: nutrient agar, 37° C., 18 hours
[19] = tested on: Pseudomonas aeruginosa H11; assay type: cell-based; details: nutrient agar, 37° C., 18 hours
Providencia 2991 = assay type: cell-based; details: nutrient agar, 37° C., 18 hours
[20] = tested on: Bacillus subtilis PCI 219; assay type: cell-based; details: PCI219, nutrient agar, 37° C., 18 hours
Shigella sonnei JS11746 = assay type: cell-based; details: nutrient agar, 37° C., 18 hours
[21] = tested on: Staphylococcus aureus Ap01; assay type: cell-based; details: nutrient agar, 37° C., 18 hours
[22] = tested on: Staphylococcus aureus FDA 209P; assay type: cell-based; details: FDA209P, nutrient agar, 37° C., 18 hours
Serratia SOU = assay type: cell-based; details: nutrient agar, 37° C., 18 hours
[23] = tested on: Pseudomonas aeruginosa 21-75; assay type: cell-based; details: 2175, nutrient agar, 37° C., 18 hours
[24] = tested on: Pseudomonas aeruginosa ROS134/PU21; assay type: cell-based; details: ROS134/PU21, 18 h
[25] = tested on: Pseudomonas aeruginosa TI-13; assay type: cell-based; details: TI13, nutrient agar, 37° C., 18 hours
[26] = tested on: Salmonella enteritidis 1891; assay type: cell-based; details: Salmonella enterica, nutrient agar, 37° C., 18 hours
[27] = tested on: Bacillus subtilis NRRL B-558; assay type: cell-based; details: NRRLB558, nutrient agar, 37° C., 18 hours
[28] = tested on: Pseudomonas aeruginosa A3; assay type: cell-based; details: A3, 18 h
[29] = tested on: Escherichia coli K-12 LA 290 R55; assay: microbe, parasite or virus in culture; assay type: cell-based; details: K12LA290R55, 18 h

C[C@@H]1C[C@H](N)[C@@H](O)[C@@H](O[C@@H]2C[C@H](O[C@@H]3CCC[C@@H](CN)O3)[C@@H](N)C[C@H]2NC(=O)[C@@H](O)CCN)O1 [Hexadeoxyamikacin, 1-N-[(S)-4-amino-2-hydroxybutyryl]-5,2',3',4',4",6"-hexadeoxykanamycin]
MIC [1]: 1.56 µg/mL (≈ 3.19 µM) | MIC [2]: 3.13 µg/mL (≈ 6.39 µM) | MIC [3]: 1.56 µg/mL (≈ 3.19 µM) | MIC (Proteus rettgeri GN311): 1.56 µg/mL (≈ 3.19 µM) | MIC (Serratia 4): 12.5 µg/mL (≈ 25.5 µM) | MIC (Bacillus anthracis): 1.56 µg/mL (≈ 3.19 µM) | MIC (Escherichia coli K-12 R5): 100 µg/mL (≈ 204 µM) | MIC [4]: 1.56 µg/mL (≈ 3.19 µM) | MIC [5]: 50 µg/mL (≈ 102 µM) | MIC [6]: 6.25 µg/mL (≈ 12.8 µM) | MIC (Proteus vulgaris OX19): 0.78 µg/mL (≈ 1.59 µM) | MIC [7]: 6.25 µg/mL (≈ 12.8 µM) | MIC [8]: 50 µg/mL (≈ 102 µM) | MIC [9]: 50 µg/mL (≈ 102 µM) | MIC [10]: 50 µg/mL (≈ 102 µM) | MIC [11]: 6.25 µg/mL (≈ 12.8 µM) | MIC (Serratia marcescens): 6.25 µg/mL (≈ 12.8 µM) | MIC [12]: 1.56 µg/mL (≈ 3.19 µM) | MIC [13]: 6.25 µg/mL (≈ 12.8 µM) | MIC [14]: 1.56 µg/mL (≈ 3.19 µM) | MIC (Providencia Pv 16): 3.13 µg/mL (≈ 6.39 µM) | MIC [15]: 50 µg/mL (≈ 102 µM) | MIC (Escherichia coli NIHJ): 1.56 µg/mL (≈ 3.19 µM) | MIC (Escherichia coli K-12): 0.78 µg/mL (≈ 1.59 µM) | MIC (Escherichia coli W677): 0.78 µg/mL (≈ 1.59 µM) | MIC [16]: > 100 µg/mL | MIC [17]: 1.56 µg/mL (≈ 3.19 µM) | MIC [18]: 25 µg/mL (≈ 51.1 µM) | MIC [19]: 100 µg/mL (≈ 204 µM) | MIC (Providencia 2991): 6.25 µg/mL (≈ 12.8 µM) | MIC [20]: 0.78 µg/mL (≈ 1.59 µM) | MIC (Shigella sonnei JS11746): 3.13 µg/mL (≈ 6.39 µM) | MIC [21]: 3.13 µg/mL (≈ 6.39 µM) | MIC [22]: 0.78 µg/mL (≈ 1.59 µM) | MIC (Serratia SOU): 50 µg/mL (≈ 102 µM) | MIC [23]: 100 µg/mL (≈ 204 µM) | MIC [24]: > 100 µg/mL | MIC [25]: 12.5 µg/mL (≈ 25.5 µM) | MIC [26]: 3.13 µg/mL (≈ 6.39 µM) | MIC [27]: 0.78 µg/mL (≈ 1.59 µM) | MIC [28]: 0.78 µg/mL (≈ 1.59 µM) | MIC [29]: 1.56 µg/mL (≈ 3.19 µM)

C[C@@H]1C[C@H](N)[C@@H](O)[C@@H](O[C@@H]2C[C@H](O[C@@H]3CCC[C@@H](CN)O3)[C@@H](N)C[C@H]2N)O1 [Hexadeoxykanamycin, 5,2',3',4',4",6"-hexadeoxykanamycin]
MIC [1]: 0.78 µg/mL (≈ 2.01 µM) | MIC [2]: > 100 µg/mL | MIC [3]: 12.5 µg/mL (≈ 32.2 µM) | MIC (Proteus rettgeri GN311): 0.78 µg/mL (≈ 2.01 µM) | MIC (Serratia 4): 25 µg/mL (≈ 64.3 µM) | MIC (Bacillus anthracis): 1.56 µg/mL (≈ 4.02 µM) | MIC (Escherichia coli K-12 R5): > 100 µg/mL | MIC [4]: 25 µg/mL (≈ 64.3 µM) | MIC [5]: > 100 µg/mL | MIC [6]: 6.25 µg/mL (≈ 16.1 µM) | MIC (Proteus vulgaris OX19): 1.56 µg/mL (≈ 4.02 µM) | MIC [7]: 6.25 µg/mL (≈ 16.1 µM) | MIC [8]: > 100 µg/mL | MIC [9]: > 100 µg/mL | MIC [10]: 100 µg/mL (≈ 257 µM) | MIC [11]: 6.25 µg/mL (≈ 16.1 µM) | MIC (Serratia marcescens): 6.25 µg/mL (≈ 16.1 µM) | MIC [12]: 0.78 µg/mL (≈ 2.01 µM) | MIC [13]: 12.5 µg/mL (≈ 32.2 µM) | MIC [14]: 3.13 µg/mL (≈ 8.06 µM) | MIC (Providencia Pv 16): 12.5 µg/mL (≈ 32.2 µM) | MIC [15]: > 100 µg/mL | MIC (Escherichia coli NIHJ): 3.13 µg/mL (≈ 8.06 µM) | MIC (Escherichia coli K-12): 1.56 µg/mL (≈ 4.02 µM) | MIC (Escherichia coli W677): 1.56 µg/mL (≈ 4.02 µM) | MIC [16]: > 100 µg/mL | MIC [17]: 25 µg/mL (≈ 64.3 µM) | MIC [18]: 50 µg/mL (≈ 129 µM) | MIC [19]: > 100 µg/mL | MIC (Providencia 2991): 50 µg/mL (≈ 129 µM) | MIC [20]: 0.78 µg/mL (≈ 2.01 µM) | MIC (Shigella sonnei JS11746): 3.13 µg/mL (≈ 8.06 µM) | MIC [21]: 3.13 µg/mL (≈ 8.06 µM) | MIC [22]: 1.56 µg/mL (≈ 4.02 µM) | MIC (Serratia SOU): > 100 µg/mL | MIC [23]: > 100 µg/mL | MIC [24]: > 100 µg/mL | MIC [25]: 50 µg/mL (≈ 129 µM) | MIC [26]: 1.56 µg/mL (≈ 4.02 µM) | MIC [27]: 0.78 µg/mL (≈ 2.01 µM) | MIC [28]: 3.13 µg/mL (≈ 8.06 µM) | MIC [29]: 100 µg/mL (≈ 257 µM)

— patent publication US4486419A, “5,2',3',4',4",6"-Hexadeoxykanamycin and its 1-N-acylated derivative” (Zaidan Hojin Biseibutsu Kagaku Kenkyu Kai, priority 1982, dated 1984)
